Broadly, the melting point is the temperature, or range, at which the solid turns liquid.

In the case of `NCc1cccnc1-n1cc(-c2ccc(Oc3ccccc3)cc2)c2c(N)ncnc21.O=C(O)/C=C\C(=O)O.O=C(O)/C=C\C(=O)O`, the melting point was 131 to 134 °C.

The compound `Nc1ncnc2c1c(-c1ccc(Oc3ccccc3)cc1)cn2C1CCC2(CC1)OCCO2` [Example 174, 5-(4-Phenoxyphenyl)-7-(1,4-dioxaspiro[4,5]decan-8-yl)-7H-pyrrolo[2,3-d]pyrimidin-4-ylamine] yielded a melting point of 193 to 194 °C. For the compound `N#Cc1c(NCCCn2ccnc2)cccc1Oc1ccc(-c2cn(C3CCOC3)c3ncnc(N)c23)cc1` (stereo not shown) [Example 39, 2-[4-(4-Amino-7-(3-tetrahydrofuryl)-7H-pyrrolo[2,3-d]pyrimidin-5-yl)phenoxy]-6-(3-imidazol-1-yl)propylaminobenzonitrile], the melting point was 110 °C. `Nc1ncnc2c1c(-c1ccc(Oc3ccccc3C=O)cc1)cn2C1CCOC1` (stereo not shown) [Example 29, 2-[4-(4-Amino-7-(3-tetrahydrofuryl)-7H-pyrrolo[2,3-d)pyrimidin-5-yl)phenoxy]benzaldehyde] yielded a melting point of 185 to 187 °C.

In turn, `Nc1ncnc2c1c(-c1ccc(Oc3ccccc3)cc1)cn2CC(=O)NCCOCCO` [Example 156, N-[-2(2-hydroxyethoxy)ethyl]-2-[4-amino-5-(4-phenoxyphenyl)-7H-pyrrolo[2,3-d]-pyrimidin-7-yl]acetamide] registered a melting point of 145 to 147 °C. Consider `CC(C)(C)OC(=O)N1CCC(n2cc(-c3ccc(Oc4ccccc4)cc3)c3c(N)ncnc32)C1` (stereo not shown) [Example 203, tert-Butyl 3-[4-Amino-5-(4-phenoxyphenyl)-7H-pyrrolo[2,3-d]pyrimidin-7-yl]-1-pyrrolidinecarboxylate], for which the melting point lay within 168 to 170 °C. For the compound `COCCCNc1cccc(Oc2ccc(-c3cn(C4CCOC4)c4ncnc(N)c34)cc2)c1C#N` (stereo not shown) [Example 41, 2-[4-(4-Amino-7-(3-tetrahydrofuryl)-7H-pyrrolo[2,3-d]pyrimidin-5-yl)phenoxy]-6-(3-methoxypropylamino)benzonitrile], the melting point lay within 183 to 184 °C. As for `CC(C)(C)OC(=O)N1CCC(n2cc(-c3ccc(Oc4ccccc4)cc3)c3c(N)ncnc32)CC1` [Example 200, tert-Butyl 4-[4-Amino-5-(4-phenoxyphenyl)-7H-pyrrolo[2,3-d]pyrimidin-7-yl]-1-piperidinecarboxylate], the figure is 168.5 to 169.5 °C; as for `CN1CCN([C@H]2CCC[C@H](n3cc(-c4ccc(Oc5ccccc5)cc4)c4c(N)ncnc43)C2)CC1.Cl.Cl.Cl` (relative stereo) (hydrate or solvate), 304 to 306 °C (dec.). In the case of `CN1CCN([C@@H]2CCC[C@H](n3cc(-c4ccc(Oc5ccccc5)cc4)c4c(N)ncnc43)C2)CC1.Cl.Cl.Cl` (relative stereo), the melting point is 224.5 to 226.5 °C (dec.). As for `Cl.Cl.Nc1ncnc2c1c(-c1ccc(Oc3ccccc3)cc1)cn2C1CCNC1` (stereo not shown) (hydrate or solvate), the figure is 298 °C (dec.).

Compound `Nc1ncnc2c1c(-c1ccc(Oc3ccccc3)cc1)cn2C1COCC1O` (stereo not shown) [Example 30, 4-[4-Amino-5-(4-phenoxyphenyl)-7H-pyrrolo-[2,3-d]pyrimidin-7-yl]tetrahydrofuran-3-ol] yielded a melting point of 234.5 to 235.5 °C. In the case of `CC(C)C(=O)n1cc(-c2ccc(Oc3ccccc3)cc2)c2c(N)ncnc21` [Example 173, 7-Isobutyryl-5-(4-phenoxyphenyl)-7H-pyrrolo[2,3-d]pyrimidin-4-ylamine], the melting point fell in the range of 160.5 to 161 °C.

For `CN(C)[C@H]1CC[C@H](n2cc(-c3ccc(Oc4ccccc4)cc3)c3c(N)ncnc32)CC1` [Example 196, Trans-7-(4-Dimethylaminocyclohexyl)-5-(4-phenoxyphenyl)-7H-pyrrolo[2,3-d]pyrimidin-4-ylamine], the melting point is 207.5 to 210 °C. The value for `Cl.NCCn1cc(-c2ccc(Oc3ccccc3)cc2)c2c(N)ncnc21` was 284 to 285 °C; that for `CN1CCN(C2CCC(n3cc(-c4ccc(Oc5ccccc5)cc4)c4c(N)ncnc43)C2)CC1.O=C(O)/C=C\C(=O)O.O=C(O)/C=C\C(=O)O.O=C(O)/C=C\C(=O)O` (stereo not shown) (hydrate or solvate) was 168 to 170 °C (dec.); that for `Nc1ncnc2c1c(-c1ccc(Oc3ccccc3)cc1)cn2C1CCC(O)CC1` (stereo not shown) [Example 243, 4-[4-Amino-5-(4-phenoxyphenyl)-7H-pyrrolo[2,3-d]pyrimidin-7-yl]cyclohexanol] was 199 to 200 °C.

In turn, `Nc1ncnc2c1c(-c1ccc(Oc3ccccc3)cc1)c(Br)n2C1CCOC1` (stereo not shown) [Example 40, 4-Amino-6-bromo-5-(4-phenoxyphenyl)-7-(3-tetrahydrofuryl)-7H-pyrrolo[2,3-d]pyrimidine] returned a melting point of 205 to 206 °C. Compound `N#Cc1c(OCCN2CCOCC2)cccc1Oc1ccc(-c2cn(C3CCOCC3)c3ncnc(N)c23)cc1` [Example 50, 2-(4-(4-Amino-7-(4-tetrahydropyranyl)-7H-pyrrolo[2,3-d]pyrimidin-5-yl)phenoxy]-6-(2-morpholinoethoxy)benzonitrile] displayed a melting point of 110 °C. Compound `CCN1CCCC1CNC(=O)Cn1cc(-c2ccc(Oc3ccccc3)cc2)c2c(N)ncnc21` (stereo not shown) [Example 155, N-(N-Ethylpyrrolidin-2-ylmethyl)-2-[4-amino-5-(4-phenoxyphenyl)-7H-pyrrolo[2,3-d]-pyrimidin-7-yl]acetamide] came in with a melting point of 122 to 122.5 °C. On to `N#Cc1c(NCCc2ccncc2)cccc1Oc1ccc(-c2cn(C3CCOC3)c3ncnc(N)c23)cc1` (stereo not shown) [Example 38, 2-[4-(4-Amino-7-(3-tetrahydrofuryl)-7H-pyrrolo[2,3-d]pyrimidin-5-yl)phenoxy]-6-(2-(4-pyridyl)ethylamino)-benzonitrile], for which the melting point lay in the range of 212 to 213 °C. As to `Nc1ncnc2c1c(-c1ccc(Oc3ccccc3CN3CCCCC3)cc1)cn2C1CCOC1` (stereo not shown) [Example 32, 5-[4-(2-Piperidinomethylphenoxy)phenyl]-7-(3-tetrahydrofuryl)-7H-pyrrolo[2,3-d]pyrimidin-4-ylamine], the melting point lay in the range of 76 to 78 °C. As for `Nc1ncnc2c1c(-c1ccc(Oc3ccccc3CN3CCOCC3)cc1)cn2C1CCOC1` (stereo not shown) [Example 31, 5-[4-(2-Morpholinomethylphenoxy)phenyl]-7-(3-tetrahydrofuryl)-7H-pyrrolo[2,3-d]pyrimidin-4-ylamine], the figure is 169 to 171 °C. Compound `Nc1ncnc2c1c(-c1ccc(Oc3ccccc3)cc1)cn2[C@H]1CC[C@@H](N2CCCC2)CC1` [Example 193, cis-5-(4-Phenoxyphenyl)-7-(4-pyrrolidinocyclohex-1-yl)-7H-pyrrolo[2,3-d]pyrimidin-4-ylamine] gave a melting point of 101 to 104 °C. The value for `Nc1ncnc2c1c(-c1ccc(Oc3ccccc3)cc1)cn2C1CCNC1` (stereo not shown) [Example 205, 5-(4-Phenoxyphenyl)-7-(3-pyrrolidinyl) -7H-pyrrolo[2,3-d]pyrimidin-4-ylamine] was 182 to 184 °C; that for `Nc1ncnc2c1c(-c1ccc(Oc3ccc(F)cc3)cc1)cn2C1CCOC1` (stereo not shown) [Example 35, 5-[4-(4-Fluorophenoxy)phenyl]-7-(3-tetrahydrofuryl)-7H-pyrrolo[2,3-d]pyrimidin-4-ylamine] was 198 to 199 °C; that for `N#Cc1c(NCCc2ccncc2)cccc1Oc1ccc(-c2cn(C3CCOCC3)c3ncnc(N)c23)cc1` [Example 51, 2-[4-(4-Amino-7-(4-tetrahydropyranyl)-7H-pyrrolo[2,3-d]pyrimidin-5-yl)phenoxy]-6-(2-(4-pyridyl)ethylamino)benzonitrile] was 120 to 123 °C. The compound `COc1cc(-c2cn([C@H]3CC[C@H](N4CCN(C)CC4)CC3)c3ncnc(N)c23)ccc1NC(=O)OCc1ccccc1.O=C(O)/C=C\C(=O)O.O=C(O)/C=C\C(=O)O.O=C(O)/C=C\C(=O)O` returned a melting point of 146 to 148 °C. As for `Nc1ncnc2c1c(-c1ccc(Oc3ccccc3)cc1)cn2C1CCC(=O)CC1` [Example 175, 4-[4-Amino-5-(4-phenoxyphenyl)-7H-pyrrolo[2,3-d]pyrimidin-7-yl]cyclohexanone], the figure is 252 to 254 °C; as for `CC(C(=O)NCCN(C)C)n1cc(-c2ccc(Oc3ccccc3)cc2)c2c(N)ncnc21` (stereo not shown) [Example 149, N-(2-Dimethylaminoethyl)-2-[4-amino-5-(4-phenoxyphenyl)-7H-pyrrolo[2,3-d]pyrimidin-7-yl)propionamide], 163 to 164 °C; as for `CC(C(=O)O)n1cc(-c2ccc(Oc3ccccc3)cc2)c2c(N)ncnc21` (stereo not shown) [Example 157, 2-[4-Amino-5-(4-phenoxyphenyl)-7H-pyrrolo[2,3-d]pyrimidin-7-yl]propionic Acid], 239.5 to 241 °C. Compound `CCOC(=O)C(C)n1cc(-c2ccc(Oc3ccccc3)cc2)c2c(N)ncnc21` (stereo not shown) [Example 148, Ethyl 2-[4-Amino-5-(4-phenoxyphenyl)-7H-pyrrolo[2,3-d]pyrimidin-7-yl]propionate] had a melting point of 139 to 140 °C. For `Nc1ncnc2c1c(-c1ccc(Oc3ccccc3)cc1)cn2CC(=O)NCCN1CCOCC1` [Example 153, N-(2-Morpholinoethyl)-2-[4-amino-5-(4-phenoxyphenyl)-7H-pyrrolo[2,3-d]pyrimidin-7-yl]acetamide], the melting point is 164 to 165 °C. As for `COCCNCc1ccccc1Oc1ccc(-c2cn(C3CCOC3)c3ncnc(N)c23)cc1` (stereo not shown) [Example 33, 5-{4-[2-(2-Methoxyethyl)aminomethylphenoxy]phenyl}-7-(3-tetrahydrofuryl)-7H-pyrrolo[2,3-d]-pyrimidin-4-ylamine], the figure is 66 to 68 °C; as for `N#Cc1cccnc1-n1cc(-c2ccc(Oc3ccccc3)cc2)c2c(N)ncnc21` [Example 180, 2-[4-Amino-5-(4-phenoxyphenyl)-7H-pyrrolo[2,3-d]pyrimidin-7-yl]pyridine-3-carbonitrile], 242 to 242.5 °C; as for `Nc1ncnc2c1c(-c1ccc(Oc3ccccc3)cc1)cn2CC(=O)NCCN1CCNCC1` [Example 152, N-[2-(Piperazin-1-yl)ethyl]-2-[4-amino-5-[4-phenoxyphenyl)-7H-pyrrolo[2,3-d]-pyrimidin-7-yl]acetamide], 138 to 140 °C. `N#Cc1ccccc1Oc1ccc(-c2cn(C3CCOCC3)c3ncnc(N)c23)cc1` [Example 42, 2-[4-(4-Amino-7-(4-tetrahydropyranyl)-7H-pyrrolo[2,3-d]pyrimidin-5-yl)phenoxy]benzonitrile]: the melting point was 125 °C.

(Values after patent US6713474B2, “Pyrrolopyrimidines as therapeutic agents” (Abbott GmbH & Co. KG, priority 1998, dated 2004).)
